Assays:
[1] = system: Candida parapsilosis (DSM 70125); assay: in vitro test of antimicrobial activity and synergistic effects on suspension cultures of Candida parapsilosis; type: cell-based; settings: FIG. 4; for antimicrobial activities against Candida parapsilosis: agent alone at three concentrations (0.05%, 0.025%, 0.01%); for synergistic effect against Candida parapsilosis: in combination with mixture M1, all three concentrations (0.05%, 0.025%, 0.01%)
Experimental: (§1) A specific in vitro test system was designed with certified tester strains from Candida parapsilosis (DSM 70125) and spores from Aspergillus niger (DSM 1957) to define antimicrobial activities and synergistic effects. In all experiments freshly grown cultures of the listed microorganisms were adjusted to a cell number of about 10^5 in a 200 μl volume of the test solutions. Test solutions are in general: a) sterile water (H2O) as a negative control, b) conventional plant protection agent alone c) specific mixtures of essential oils, detergents, metal ions and organic acids, d) a plant protection composition according to the invention.
(§2) After a residence time of 15 min. (Candida parapsilosis) or 60 min. (Aspergillus niger) at room temperature the 200 μl samples containing the microorganisms and the test solutions were diluted and were plated in dilutions of 0, 10^−1 and 10^−2 with aliquots of 10 μl each onto growth media. After an incubation period of 2-5 days at 30° C. the grown colonies were determined and documented by digital photography.

[2] = system: Candida parapsilosis and spores of Aspergillus niger; assay: summary of tests with Candida parapsilosis and spores of Aspergillus niger; type: cell-based; parameters: key to synergistic effect in mixtures: + = low but significant; ++ = good; +++ = very good; settings: for concentration without sufficient antimicrobial activity: conventional plant protection agent alone; for synergistic effect in mixtures: plant protection agent in mixtures (M1-M7, Table 2)
Experimental: as §1, §2

Row | Molecule | antimicrobial activities against Candida parapsilosis [1] | synergistic effect against Candida parapsilosis [1] | concentration without sufficient antimicrobial activity [2] | synergistic effect in mixtures [2]
1 | N#Cc1c(Cl)c(Cl)c(Cl)c(C#N)c1Cl [F5, Chlorothalonil] | do not show sufficient antimicrobial activities | show synergistic effects | 0.05% | ++
2 | CCNC(=O)NC(=O)/C(C#N)=N/OC [F3, Curzate] | do not show sufficient antimicrobial activities | show synergistic effects | 0.01% | +++
3 | Mancozeb [F4] | do not show sufficient antimicrobial activities | show synergistic effects | 0.05% | +++
4 | OC(Cc1ccccc1Cl)(Cn1nc[nH]c1=S)C1(Cl)CC1 (centres unmarked) [F2, Prothioconazole] | – | – | 0.05% | +
5 | CO/C=C(/C(=O)OC)c1ccccc1Oc1cc(Oc2ccccc2C#N)ncn1 [F6, Azoxystrobin] | – | – | 0.07% | +
6 | [Cl-].[Cu+2].[Cu+2].[OH-].[OH-].[OH-] [F7, Copperoxychlorid] | – | – | 0.05% | ++
7 | CCCOC(=O)NCCCN(C)C [F1, Propamocarb] | – | – | 0.05% | +
